Literature values in patent US20200352795A1, “WETNESS INDICATOR WITH HARDENERS” (SAVARE' I.C. S.r.l., priority 2018, published 2020).

Details: not given

SMILES | pKa of pH-indicator colorant
O=S1(=O)OC(c2cc(Br)c(O)c(Br)c2)(c2cc(Br)c(O)c(Br)c2)c2ccccc21 [Bromophenol Blue Free Acid] | ~4.0
Cc1cc(C2(c3cc(C)c(O)c(Br)c3)OS(=O)(=O)c3ccccc32)cc(Br)c1O [Bromocresol Purple Free Acid] | 6.3
O=C1OC2(c3cc(Br)c(O)c(Br)c3Oc3c2cc(Br)c(O)c3Br)c2c(Cl)c(Cl)c(Cl)c(Cl)c21 [Acid Phloxine B] | ~2.9

Same assay, conditions: Table 1

SMILES | pKa
O=S(=O)(O)c1ccc(N=C2C=CC(=C(c3ccc(Nc4ccc(S(=O)(=O)O)cc4)cc3)c3ccc(Nc4ccc(S(=O)(=O)O)cc4)cc3)C=C2)cc1 [Aniline Blue (also known as Methyl Blue), Aniline Blue] | 11.7
O=C1OC2(c3cc(Br)c(O)c(Br)c3Oc3c2cc(Br)c(O)c3Br)c2c(Cl)c(Cl)c(Cl)c(Cl)c21 [Acid Phloxine B] | 2.9
Cc1c(C2(c3cc(Br)c(O)c(Br)c3C)OS(=O)(=O)c3ccccc32)cc(Br)c(O)c1Br [Bromocresol Green Free Acid] | 4.8
